Experimental data published in ChEMBL document CHEMBL4673297, “Glutathione peroxidase-like functions of 1,2-diselenane-4,5-diol and its amphiphilic derivatives: Switchable catalytic cycles depending on peroxide substrates” (Bioorg Med Chem, 2021).
Activity calls are given as the source filed them. The rule behind the calls is not given here.

How the values were obtained:
[1] = Glutathione peroxidase-like catalytic anti-lipid peroxidation activity assessed as inhibition of AAPH-induced lipid peroxidation incubated for 3 hrs using soybean lecithin/cholesterol-liposomes by TBARS assay; assay type: physicochemical
[2] = (§1) Glutathione peroxidase-like catalytic antioxidant activity in pH 7 phosphate buffer assessed as catalytic reduction of H2O2 by measuring initial velocity at 0.2 mM and 25 degreeC using reduced DTT as di-thiol co-substrate in presence of NADPH by UV absorbance analysis (reference value: 72+/- 3 microM/min); assay type: functional
[3] = as §1, with “100 uM” for “0.2 mM”, “GSH” for “reduced DTT”, “mono-thiol” for “di-thiol”, “11 +/- 0.4” for “72+/- 3”; assay type: functional
[4] = Glutathione peroxidase-like catalytic activity assessed as drug oxidation by measuring (2S)-1,4-diseleninobutan-2-aminium formation incubated with 8.6 mM H2O2 in water at 3.8 mM incubated for 3 hrs by ESI(+)-MS spectral analysis; assay type: functional
[5] = Glutathione peroxidase-like catalytic activity assessed as drug oxidation by measuring (S)-[1,2,7]Oxadiselenepan-4-yl-ammonium formation incubated with 3.8 mM H2O2 in water at 3.8 mM incubated for 30 mins by ESI(+)-MS spectral analysis; assay type: functional
[6] = Glutathione peroxidase-like catalytic activity assessed as drug oxidation by measuring (S)-2-Oxo-2lambda(4)-[1,2]diselenan-4-yl-ammonium formation incubated with 8.6 mM H2O2 in water at 3.8 mM incubated for 3 hrs by ESI(+)-MS spectral analysis; assay type: functional
[7] = Glutathione peroxidase-like catalytic activity assessed as drug oxidation by measuring (S)-[1,2,7]Oxadiselenepan-4-yl-ammonium formation incubated with 8.6 mM H2O2 in water at 3.8 mM incubated for 3 hrs by ESI(+)-MS spectral analysis; assay type: functional
[8] = Glutathione peroxidase-like catalytic activity assessed as drug oxidation by measuring (S)-2-Oxo-2lambda(4)-[1,2,7]oxadiselenepan-4-yl-ammonium formation incubated with 8.6 mM H2O2 in water at 3.8 mM incubated for 3 hrs by ESI(+)-MS spectral analysis; assay type: functional
[9] = Glutathione peroxidase-like catalytic activity assessed as drug oxidation by measuring (S)-2-Oxo-2lambda(4)-[1,2]diselenan-4-yl-ammonium formation incubated with 3.8 mM H2O2 in water at 3.8 mM incubated for 30 mins by ESI(+)-MS spectral analysis; assay type: functional
[10] = Glutathione peroxidase-like catalytic activity assessed as drug oxidation by measuring (S)-2,7-Dioxo-2lambda(4),7lambda(4)-[1,2,7]oxadiselenepan-4-yl-ammonium formation incubated with 8.6 mM H2O2 in water at 3.8 mM incubated for 3 hrs by ESI(+)-MS spectral analysis; assay type: functional
[11] = Glutathione peroxidase-like catalytic activity assessed as drug oxidation by measuring (S)-2-Oxo-2lambda(4)-[1,2]diselenan-4-yl-ammonium formation incubated with 8.6 mM H2O2 and 8.6 mM reduced DTT in water at 3.8 mM incubated for 2 mins by ESI(+)-MS spectral analysis; assay type: functional
[12] = Glutathione peroxidase-like catalytic activity assessed as drug oxidation by measuring (S)-[1,2,7]Oxadiselenepan-4-yl-ammonium formation incubated with 8.6 mM H2O2 and 8.6 mM reduced DTT in water at 3.8 mM incubated for 2 mins by ESI(+)-MS spectral analysis; assay type: functional
[13] = Glutathione peroxidase-like catalytic activity assessed as drug oxidation by measuring (S)-2-Oxo-2lambda(4)-[1,2,7]oxadiselenepan-4-yl-ammonium formation incubated with 3.8 mM H2O2 in water at 3.8 mM incubated for 30 mins by ESI(+)-MS spectral analysis; assay type: functional
[14] = Glutathione peroxidase-like catalytic activity assessed as drug oxidation by measuring (S)-2,7-Dioxo-2lambda(4),7lambda(4)-[1,2,7]oxadiselenepan-4-yl-ammonium formation incubated with 8.6 mM H2O2 and 8.6 mM reduced DTT in water at 3.8 mM incubated for 2 mins by ESI(+)-MS spectral analysis; assay type: functional
[15] = Glutathione peroxidase-like catalytic activity assessed as drug oxidation by measuring (S)-2,7-Dioxo-2lambda(4),7lambda(4)-[1,2,7]oxadiselenepan-4-yl-ammonium formation incubated with 3.8 mM H2O2 in water at 3.8 mM incubated for 30 mins by ESI(+)-MS spectral analysis; assay type: functional
[16] = Glutathione peroxidase-like catalytic activity assessed as drug oxidation by measuring (S)-2-Oxo-2lambda(4)-[1,2,7]oxadiselenepan-4-yl-ammonium formation incubated with 8.6 mM H2O2 and 8.6 mM reduced DTT in water at 3.8 mM incubated for 2 mins by ESI(+)-MS spectral analysis; assay type: functional
[17] = Glutathione peroxidase-like catalytic activity assessed as drug oxidation by measuring (2S)-1,4-diseleninobutan-2-aminium formation incubated with 8.6 mM H2O2 and 8.6 mM reduced DTT in water at 3.8 mM incubated for 2 mins by ESI(+)-MS spectral analysis; assay type: functional
[18] = test system: HeLa; assay: (§2) Cytotoxicity against human HeLa cells assessed as cell viability at 20 uM measured after 15 hrs by MTT assay relative to control; assay type: cell-based; settings: hela, 15 h, 20 µM
[19] = test system: HeLa; assay: Cytotoxicity against human HeLa cells assessed as reduction in cell viability at 100 uM measured after 15 hrs hrs by MTT assay; assay type: cell-based
[20] = test system: HeLa; assay: Protection against H2O2-induced oxidative stress in human HeLa cells assessed as cell viability at 20 uM preincubated with compound for 15 hrs followed by drug wash-out and later incubated with H2O2 for 4 hrs by MTT assay; assay type: functional, cell-based
[21] = test system: HeLa; assay: Protection against AAPH-induced oxidative stress in human HeLa cells assessed as increase in cell viability at 5 to 20 uM preincubated for 15 hrs followed by incubation with AAPH for 3 hrs by MTT assay relative to control; assay type: functional; settings: dose 5-20 µM; time 18 hrs
[22] = Solubility of the compound in phosphate buffer solution at pH 7.5 in presence of reduced DTT; assay type: physicochemical
[23] = Glutathione peroxidase-like catalytic antioxidant activity in pH 7 phosphate buffer assessed as catalytic reduction of H2O2 by measuring lipoic acid formation using DHLA as co-substrate at 0.2 mM in presence of NADPH by UV absorbance analysis; assay type: functional
[24] = Glutathione peroxidase-like catalytic antioxidant activity assessed as CST-HCl thiol co-substrate oxidation by measuring disulfide formation at 11.5 umol in presence of CHP lipophilic peroxide in water/CH2Cl2 solution incubated for 24 hrs by 1H-NMR spectroscopy; assay type: functional; settings: dose 11.5 µmol
[25] = Glutathione peroxidase-like catalytic antioxidant activity assessed as CST-HCl thiol co-substrate oxidation by measuring disulfide formation at 11.5 umol in presence of CHP lipophilic peroxide in 10 mM aqueous HCl/CH2Cl2 solution incubated for 24 hrs by 1H-NMR spectroscopy; assay type: functional; settings: dose 11.5 µmol
[26] = Antioxidant activity assessed as radical scavenging activity by measuring DPBQ generation using DPPD and AMVN as radical initiator at 0.5 mM preincubated for 5 mins with DPPD followed by AMVN addition and measured for 30 mins by UV/Vis-spectrophotometry analysis; assay type: functional; settings: time 35.0 min
[27] = as §2; assay type: cell-based; settings: HeLa cells, read-out: Activity
[28] = Glutathione peroxidase-like catalytic anti-lipid peroxidation activity assessed as inhibition of AAPH-induced lipid peroxidation incubated for 3 hrs in presence of (+/-)-trans-5-Hydroxy-1,2-diselenan-4-yl dodecanoate using soybean lecithin/cholesterol-liposomes by TBARS assay; assay type: physicochemical

Compound	IC50 [1] [µM]	Activity [18]	Activity [19]	Activity [20]	V0 [3] [µM/min]	fold change (FC) [21]	solubility [22]	V0 [2] [µM/min]	other results
c1ccc([Se][Se]c2ccccc2)cc1	70.1								
O[C@@H]1C[Se]C[C@H]1O									IC50 [2]: Not Active; IC50 [3]: Not Active
N[C@H]1CC[Se][Se]C1									Drug metabolism [4]: Metabolite detected; Drug metabolism [5]: Metabolite detected; Drug metabolism [6]: Metabolite detected; Drug metabolism [7]: Metabolite detected; Drug metabolism [8]: Metabolite detected; Drug metabolism [9]: Metabolite detected; Drug metabolism [10]: Metabolite detected; Drug metabolism [11]: Metabolite detected; Drug metabolism [12]: Metabolite detected; Drug metabolism [13]: Metabolite detected; Drug metabolism [14]: Metabolite not detected; Drug metabolism [15]: Metabolite detected; Drug metabolism [16]: Metabolite not detected; Drug metabolism [17]: Metabolite not detected
O=C(O[C@@H]1C[Se][Se]C[C@H]1O)c1ccc2ccccc2c1 (racemic)	15.5	Non-Toxic	Toxic	inactive	11.3	1.5	Insoluble		
O=C(O[C@@H]1C[Se][Se]C[C@H]1O)c1ccccc1 (racemic)	27.3	Toxic	Toxic	inactive	12.7		Soluble	116	
CCC(=O)O[C@@H]1C[Se][Se]C[C@H]1O (racemic)	121	Toxic	Toxic	inactive	23		Soluble	330	Activity [23]: Active
CCCCCCCC(=O)O[C@@H]1C[Se][Se]C[C@H]1O (racemic)	30	Non-Toxic	Non-Toxic	inactive	11.9	1.5	Soluble	109	
CCCCCCCCCCCC(=O)O[C@@H]1C[Se][Se]C[C@H]1O (racemic)	10.7	Non-Toxic	Non-Toxic	inactive	9.3	1.5	Soluble	122	
CCCCCC(=O)O[C@@H]1C[Se][Se]C[C@H]1O (racemic)	42.2	Toxic	Toxic	inactive	14.9		Soluble	149	Activity [23]: Active
CCCCCCCCCC(=O)O[C@@H]1C[Se][Se]C[C@H]1O (racemic)	13.2	Non-Toxic	Non-Toxic	inactive	10.9	1.5	Soluble	172	
CCCCCCCCCCCCCC(=O)O[C@@H]1C[Se][Se]C[C@H]1O (racemic)	16.7	Non-Toxic	Non-Toxic	inactive	9.1	1.5	Soluble	63	Activity [24]: Active; Activity [25]: Active; Activity [26]: inactive
O=c1c2ccccc2[se]n1-c1ccccc1 [EBSELEN]	80.4				32.6			202	viability at 15 h, 20 µM [27]: 80%
CC1=NN(c2ccccc2)C(=O)C1 [EDARAVONE]	29.3								IC50 [28]: 18.7 µM
